Test results reported in ChEMBL document CHEMBL2440045, “The synthesis and anticancer activity of analogs of the indole phytoalexins brassinin, 1-methoxyspirobrassinol methyl ether and cyclobrassinin” (Bioorg Med Chem, 2013).

What was measured:
[1] = test system: HUVEC; test: Cytotoxicity against HUVEC assessed as cell viability after 48 hrs by MTT assay; type: cell-based; details: Homo sapiens
[2] = test system: CCRF-CEM; test: Selectivity index, ratio of IC50 for HUVEC to IC50 for human CCRF-CEM cells
[3] = test system: HeLa; test: Antiproliferative activity against human HeLa cells assessed as cell viability after 72 hrs by MTT assay; type: functional, cell-based
[4] = test system: Jurkat; test: Antiproliferative activity against human Jurkat cells assessed as cell viability after 72 hrs by MTT assay; type: functional, cell-based
[5] = test system: MDA-MB-231; test: Potency index, ratio of etoposide IC50 to compound IC50 for human MDA-MB-231 cells; type: functional
[6] = test system: A549; test: Selectivity index, ratio of IC50 for HUVEC to IC50 for human A549 cells
[7] = test system: HeLa; test: Selectivity index, ratio of IC50 for HUVEC to IC50 for human HeLa cells
[8] = test system: CCRF-CEM; test: Antiproliferative activity against human CCRF-CEM cells assessed as cell viability after 72 hrs by MTT assay; type: functional, cell-based
[9] = test system: Jurkat; test: Selectivity index, ratio of IC50 for HUVEC to IC50 for human Jurkat cells
[10] = test system: A549; test: Antiproliferative activity against human A549 cells assessed as cell viability after 72 hrs by MTT assay; type: functional, cell-based; details: A549, 72 h
[11] = test system: MCF7; test: Antiproliferative activity against human MCF7 cells assessed as cell viability after 72 hrs by MTT assay; type: functional, cell-based; details: MCF7, 72 h
[12] = Selectivity index, ratio of IC50 for HUVEC to IC50 for human MDA-MB-231 cells
[13] = test system: MDA-MB-231; test: Antiproliferative activity against human MDA-MB-231 cells assessed as cell viability after 72 hrs by MTT assay; type: functional, cell-based; details: MDA-MB-231, 72 h
[14] = test system: MCF7; test: Selectivity index, ratio of IC50 for HUVEC to IC50 for human MCF7 cells

| SMILES | IC50 [1] | Ratio IC50 [2] | IC50 [3] | IC50 [4] | Ratio IC50 [5] | Ratio IC50 [6] | Ratio IC50 [7] | IC50 [8] | Ratio IC50 [9] | IC50 [10] | IC50 [11] | Ratio IC50 [12] | IC50 [13] | Ratio IC50 [14] |
| --- | --- | --- | --- | --- | --- | --- | --- | --- | --- | --- | --- | --- | --- | --- |
| Brc1ccc(NC2=NCc3c([nH]c4ccccc34)S2)cc1 | 64.8 µM | >6.5 | 30 µM | 8.3 µM | 2 | 2 | 2.2 | < 10 µM | 7.8 | 32 µM | 29.8 µM | 7.5 | 8.6 µM | 2.2 |
| Fc1ccc(NC2=NCc3c([nH]c4ccccc34)S2)cc1 | 42 µM | 24.7 | 21.7 µM | 8 µM | 2 | 1.4 | 1.9 | 1.7 µM | 5.3 | 29 µM | 33.8 µM | 4.7 | 8.9 µM | 1.2 |
